The results in this text go back to patent US4526894A, “Pharmaceutically active 4-hydroxy-3-benzoyl-2-quinolone derivatives” (Nippon Shinyaku Co. Ltd., priority 1982, dated 1985).

Data set [1] relates to carrageenin edema in SD-strain rats. In words: Carrageenin edema at hind foot of rats (anti-inflammatory action). In kind it is in vivo, rat. To be noted: for inhibition in vivo at 200 mg/kg: Rattus norvegicus, po, 3 h, read-out: % Inhibition of carrageenin edema. As to the method:
The anti-inflammatory action of the compounds of the present invention were evaluated by measuring the inhibition against carrageein edema as set forth below.
Carrageenin edema at hind foot of rats:
SD-strain rats of body weights of around 150 grams were used, each group consisting of five rats. A solution (0.1 ml) of 0.5% carrageenin dissolved in physiological saline water was hypodermically injected into right hind foot pat of the rats and, one hour prior to the injection of carrageenin, 200 mg/kg of test compound was given per os. Foot volumes of the rats before the carrageenin treatment and those of three hours after the treatment were measured and the differences were compared with those of the control group to determine the effect of the compounds.
On the technique in general: Carrageenan injected into the paw causes an acute inflammation.

The subject of data set [2] is passive cutaneous anaphylaxis (DNP-As antigen) in Wister strain rats. In words: passive cutaneous anaphylaxis (PCA) assay in rats. In kind it is in vivo. To be noted: 10 mg/kg oral, one hour before antigen; for inhibition in vivo at 10 mg/kg: Rattus norvegicus, po, 1 h, read-out: PCA Inhibition Ratio %. The procedure:
(i) Antiserum abundant in homocytotropic antibody is prepared by the same method as Tada and Okumura did (cf. Journal of Immunology, vol. 106, page 1002, 1976). Thus, 1 mg (calculated as an amount of protein) of DNP-As (2,4-dinitrophenyl-coupled ascaris extract) prepared by methods of Strejan and Campbell (Journal of Immunology, vol. 98, p. 893, 1971) and of Eisen (Journal of Amer. Chem. Soc., vol. 85, p 4593, 1953) and 1×10^10pertussis vaccine are administered to each paw of Wister strain rats (180 to 200 grams body weights) by dividing the dose by four. Five days later, 0.5 mg of DNP-As is administered into muscle of back. Eight days later from the initial immunization, blood is taken from descending aorta under anesthetizing with ether, the resulting serum is stored at -80° and is melted before use.
(ii) Effect of tested compounds is investigated as follows:
Anti-serum obtained by the method (i) is diluted with physiological saline solution double by double successively and 0.05 ml of each diluted solution is administered into back of Wister strain rats (140 to 160 grams body weight) subcutaneously. After 72 hours, a solution of 2 mg (calculated as protein) of DNP-As and 2.5 mg of Evans Blue dissolved in 1 ml of physiological saline solution is administered intraveously at a dose of 5 ml/kg. After 30 minutes from antigen solution administration, the animals are killed and diameters of blue spots appeared at the place where antiserum is administered are measured. The PCA test is conducted by the same method as already described using a diluted solutions of antiserum which always show 10 mm or more of spot diameters and the effect of the test compounds is judged. Thus antiserum diluted solutions are administered to two places in back. Test compounds are administered orally at the dose of 10 mg/kg one hour before administration of antigen solution. From the skin of reacted parts of killed animals, leaked or emitted dyestuff is extracted and the amount of the dyestuff is measured. The inhibition ratio is calculated by the following expression:
Inhibition Ratio=(1-A'/A)×100
in which A' is an amount of dyestuff in the group treated with the test compounds and A is that in the control group.

The subject of data set [3] is SRS-A (slow reacting substance of anaphylaxis). In words: Anti-SRS-A action using isolated ileus of guinea pigs. As to the method:
Anti-SRS-As action (An anti-action against slow reacting substance of anaphylaxis).
Hartley strain male guinea pigs (300 to 350 grams body weight) are killed and 1.0 to 1.5 cm of ileus is immeidiately excised from ileocecal parts and is suspended in 10 ml of Tyrode solution (95% O2 -5% CO2 saturation) containing 10^-7 g/ml of atropine and 10^-6 g/ml of pyrilamine. SRS-A (20 units) (the amount of SRS-A showing the same shrinkage as 5 ng of histamine is defined as 1 unit) prepared by using sensitized guinea pig lung is given to cause shrinkage there. Then antagonistic action of test compounds treated five minutes ago against the shrinkage is measured and recorded via isotonic transducer.
Inhibition Ratio of Test Compd (%)=(1-A'/A)×100
in which A' is a height of shrinkage of SRS-A+test compound and A is that of SRS-A.

For the next data set, the system named is male mice. In words: Acute oral toxicity in mice (lethal ratio). In kind it is in vivo. To be noted: 400 mg/kg oral, two weeks, four mice per group. The procedure:
Acute toxicity was determined two weeks after oral administration of 400 mg/kg to male mice. Four mice (denominator) are used in each group and the dead numbers are given as the numerator. The compounds of the present invention show little, if any, toxicity.
Lethal ratios for all other compounds are 0/4 at doses of […]. It is therefore apparent that they are all safe compounds.

The mark [4] stands for this setting: 200 mg/kg per os one hour before carrageenin, 3 hours after.
Setting [5] is: 10^-6 M; guinea pig ileus, SRS-A 20 units; 5 min, 1 µM.

Where a name gives a salt, the structure may show the parent alone. Read-outs that look alike come from different tables or passages of the source.

Consider `CC(=O)Oc1ccccc1C(=O)O` [Acetylsalicylic Acid, reference compound], for which the inhibition in vivo at 200 mg/kg in data set [1] amounted to 31.6%.
Consider `O=C(c1ccccc1)c1c(O)c2cc(Cl)ccc2[nH]c1=O` [Example 1, 3-Benzoyl-6-chloro-4-hydroxy-2-quinolone], for which, in data set [1] (setting [4]), the inhibition in vivo at 200 mg/kg was 42.1%.
In the case of `COc1ccc(C(=O)c2c(O)c3ccccc3[nH]c2=O)cc1OC` [Example 2, 3-(3,4-Dimethoxybenzoyl)-4-hydroxy-2-quinolone], in data set [2], the inhibition in vivo at 10 mg/kg turned out to be 25.5%. Also, in data set [3] (setting [5]), the “SRS-A Inhibition Ratio %” value is recorded as 24.2%.
For the molecule `COC(=O)c1cccc2[nH]c(=O)c(C(=O)c3ccccc3)c(O)c12` [Example 3, Methyl 3-benzoyl-4-hydroxy-2-quinolone-5-carboxylate], the inhibition in vivo at 10 mg/kg in data set [2] came to 26.9%. The “SRS-A Inhibition Ratio %” value in data set [3] (setting [5]) is given as 26.4%. For the same molecule, the inhibition in vivo at 200 mg/kg in data set [1] (setting [4]) was determined as 32.8%.
As to `CC(C)c1ccc2[nH]c(=O)c(C(=O)c3ccccc3)c(O)c2c1` [Example 5, 3-Benzoyl-4-hydroxy-6-isopropyl-2-quinoline], the inhibition in vivo at 200 mg/kg in data set [1] (setting [4]) was found to be 32.1%.
On to `CCCCCCc1ccc2[nH]c(=O)c(C(=O)c3ccccc3)c(O)c2c1` [Example 7, 3-Benzoyl-6-n-hexyl-4-hydroxy-2-quinolone sodium salt], for which the “PCA Inhibition Ratio %” value in data set [2] (rat, sodium salt, 10 mg/kg) worked out at 15.2%. The “SRS-A Inhibition Ratio %” value in data set [3] (10^-6 M, guinea pig ileus, SRS-A 20 units, 5 min, 1 µM, sodium salt) came out at 91.2%.
For the molecule `O=C(c1ccccc1)c1c(O)c2ccc([N+](=O)[O-])cc2[nH]c1=O` [Example 10, 3-benzoyl-4-hydroxy-7-nitro-2-quinolone], in data set [2], the inhibition in vivo at 10 mg/kg was determined as 33.4%. Moreover, the “SRS-A Inhibition Ratio %” value in data set [3] (setting [5]) turned out to be 22.3%. Besides, the “Lethal Ratio (dead/treated)” value with male mice is 0/4.
As to `COC(=O)c1cccc2c(O)c(C(=O)c3ccccc3)c(=O)[nH]c12` [Example 13], the inhibition in vivo at 10 mg/kg in data set [2] is 25.7%. For the same molecule, the “SRS-A Inhibition Ratio %” value in data set [3] (setting [5]) was found to be 19.8%. The “Lethal Ratio (dead/treated)” value in the data set on male mice is reported as 1/4.
Consider `Cc1ccc2[nH]c(=O)c(C(=O)c3ccccc3)c(O)c2c1` [Example 17, 3-benzoyl-4-hydroxy-6-methyl-2-quinolone], for which the inhibition in vivo at 10 mg/kg in data set [2] came out at 35.4%. The “SRS-A Inhibition Ratio %” value in data set [3] (setting [5]) is 21.9%.
Consider `Cc1ccc2c(O)c(C(=O)c3ccccc3)c(=O)[nH]c2c1` [Example 18, 3-benzoyl-4-hydroxy-7-methyl-2-quinolone], for which the inhibition in vivo at 10 mg/kg in data set [2] stood at 26%. Moreover, the “SRS-A Inhibition Ratio %” value in data set [3] (setting [5]) stood at 21.3%.
On to `Cc1cc2[nH]c(=O)c(C(=O)c3ccccc3)c(O)c2cc1C` [Example 20, 3,-benzoyl-6,7-dimethyl-4-hydroxy-2-quinolone], for which the inhibition in vivo at 10 mg/kg in data set [2] came out at 17.4%. Also, the “SRS-A Inhibition Ratio %” value in data set [3] (setting [5]) turned out to be 23.5%.
Turning to `CCCCc1ccc2[nH]c(=O)c(C(=O)c3ccccc3)c(O)c2c1` [Example 22, 3-benzoy-6-n-butyl-4-hydroxy-2-quinolone], the inhibition in vivo at 10 mg/kg in data set [2] came to 17.4%. Also, the “SRS-A Inhibition Ratio %” value in data set [3] (setting [5]) was 39.5%.
Regarding `COc1ccccc1C(=O)c1c(O)c2ccccc2[nH]c1=O` [Example 24, 4-hydroxy-3-(2-methoxybenzoyl)-2-quinolone], in data set [2], the inhibition in vivo at 10 mg/kg was 24.7%. The “SRS-A Inhibition Ratio %” value in data set [3] (setting [5]) was found to be 20.2%.
As to `COc1ccc(C(=O)c2c(O)c3ccccc3[nH]c2=O)c(OC)c1` [Example 28, 3-(2,4-dimethoxybenzoyl)-4-hydroxy-2-quinolone], the inhibition in vivo at 10 mg/kg in data set [2] stood at 21.2%. Besides, the “SRS-A Inhibition Ratio %” value in data set [3] (setting [5]) amounted to 42.9%.
In the case of `COc1ccc(C(=O)c2c(O)c3cc(C)ccc3[nH]c2=O)cc1OC` [Example 29, 3-(3,4-dimethoxybenzoyl)-4-hydroxy-6-methyl-2-quinolone], in data set [2], the inhibition in vivo at 10 mg/kg came to 12.1%. Also, the “SRS-A Inhibition Ratio %” value in data set [3] (setting [5]) was 42.1%.
On to `COc1ccc(C(=O)c2c(O)c3ccc([N+](=O)[O-])cc3[nH]c2=O)cc1OC` [Example 30, 3-(3,4-dimethoxybenzoyl)-4-hydroxy-7-nitro-2-quinolone], for which the inhibition in vivo at 10 mg/kg in data set [2] turned out to be 18.7%. Further, the “SRS-A Inhibition Ratio %” value in data set [3] (setting [5]) is on record as 26.7%. For the same molecule, in data set [1] (setting [4]), the inhibition in vivo at 200 mg/kg turned out to be 21.3%.
`COc1ccc(C(=O)c2c(O)c3cccc(C)c3[nH]c2=O)cc1OC` [Example 31, 3-(3,4-dimethoxybenzoyl)-4-hydroxy-8-methyl-2-quinolone]: in data set [2], the inhibition in vivo at 10 mg/kg was found to be 20.4%. For the same molecule, in data set [3] (setting [5]), the “SRS-A Inhibition Ratio %” value was 20.5%. In addition, in data set [1] (setting [4]), the inhibition in vivo at 200 mg/kg worked out at 77.5%.
Consider `CC(C)c1ccc2[nH]c(=O)c(C(=O)c3ccccc3Cl)c(O)c2c1` [Example 36, 3-(2-chlorobenzoyl)-4-hydroxy-6-isopropyl-2-quinolone], for which the inhibition in vivo at 10 mg/kg in data set [2] worked out at 12.4%. In data set [3] (setting [5]), the “SRS-A Inhibition Ratio %” value stood at 60.0%.
For `Cc1cc(C)c2[nH]c(=O)c(C(=O)c3ccccc3Cl)c(O)c2c1` [Example 37, 3-(2-chlorobenzoyl)-6,8-dimethyl-4-hydroxy-2-quinolone] the same measures were 20.8% and 28.3%.
With `O=C(c1ccc(Cl)cc1)c1c(O)c2ccccc2[nH]c1=O` [Example 39, 3-(4-chlorobenzoyl)-4-hydroxy-2-quinolone], in data set [2], the inhibition in vivo at 10 mg/kg came out at 19.8%. Also, in data set [3] (setting [5]), the “SRS-A Inhibition Ratio %” value was 27.0%.
Turning to `Cc1ccc(C(=O)c2c(O)c3ccccc3[nH]c2=O)c(C)c1` [Example 43, 3-(2,4-dimethylbenzoyl)-4-hydroxy-2-quinolone], in data set [1] (setting [4]), the inhibition in vivo at 200 mg/kg is 15.7%.
With `O=C(c1cccc(C(F)(F)F)c1)c1c(O)c2ccccc2[nH]c1=O` [Example 44, 4-hydroxy-3-(3-trifluoromethylbenzoyl)-2-quinolone], the inhibition in vivo at 200 mg/kg in data set [1] (setting [4]) amounted to 15.9%.
For `CCCCCc1ccc(C(=O)c2c(O)c3ccccc3[nH]c2=O)cc1` [Example 46, 4-hydroxy-3-(4-n-pentylbenzoyl)-2-quinolone], the inhibition in vivo at 10 mg/kg in data set [2] amounted to 3.2%. Moreover, the “SRS-A Inhibition Ratio %” value in data set [3] (setting [5]) was determined as 26.9%.
As for `CC(C)c1ccc2[nH]c(=O)c(C(=O)c3ccc([N+](=O)[O-])cc3)c(O)c2c1` [Example 48, 4-hydroxy-6-isopropyl-3-(4-nitrobenzoyl)-2-quinolone], the inhibition in vivo at 10 mg/kg in data set [2] came out at 8.6%. The inhibition in vivo at 200 mg/kg in data set [1] (setting [4]) is 12.5%.
As for `O=C(O)c1ccc(C(=O)c2c(O)c3ccccc3[nH]c2=O)cc1` [Example 51, 3-(4-carboxybenzoyl)-4-hydroxy-2-quinolone], the inhibition in vivo at 10 mg/kg in data set [2] was found to be 7.4%. Besides, in data set [3] (setting [5]), the “SRS-A Inhibition Ratio %” value is given as 50.0%.
As for `COc1ccc(C(=O)c2c(O)c3ccc([N+](=O)[O-])cc3[nH]c2=O)c(OC)c1OC` [Example 54, 4-hydroxy-7-nitro-3-(2,3,4-trimethoxybenzoyl)-2-quinolone], the inhibition in vivo at 200 mg/kg in data set [1] (setting [4]) turned out to be 13.1%.
As for `CCCCCCc1ccc2[nH]c(=O)c(C(=O)c3ccccc3)c(O)c2c1` [Example 55], the inhibition in vivo at 10 mg/kg in data set [2] worked out at 13.6%. The “SRS-A Inhibition Ratio %” value in data set [3] (10^-6 M, guinea pig ileus, SRS-A 20 units, 5 min, 1 µM) was 85.6%. Moreover, the “% Inhibition of carrageenin edema” value in data set [1] (setting [4]) is given as 10.0%.
Regarding `CCCCCCc1ccc2[nH]c(=O)c(C(=O)c3ccc(OC)cc3)c(O)c2c1` [Example 59], the inhibition in vivo at 200 mg/kg in data set [1] (setting [4]) is 12.8%.
